Legend:
Format in all cases: biochemical
FXIIa = target: T1, FXIIa (Homo sapiens, UniProt P00748); assay: Determination of Factor XIIa inhibition (chromogenic substrate S-2302); details: human FXIIa alpha, Ki category
T1 construct: FXIIa alpha
T1 sequence (P00748 373-615 limits assumed): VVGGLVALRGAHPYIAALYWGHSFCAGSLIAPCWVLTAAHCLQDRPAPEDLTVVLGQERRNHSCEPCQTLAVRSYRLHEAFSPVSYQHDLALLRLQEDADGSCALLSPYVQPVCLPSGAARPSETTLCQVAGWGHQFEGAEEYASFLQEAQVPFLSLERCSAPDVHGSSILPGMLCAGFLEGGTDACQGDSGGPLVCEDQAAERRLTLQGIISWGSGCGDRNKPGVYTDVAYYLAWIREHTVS
T1 sequence (P00748 20-372 partner limits assumed): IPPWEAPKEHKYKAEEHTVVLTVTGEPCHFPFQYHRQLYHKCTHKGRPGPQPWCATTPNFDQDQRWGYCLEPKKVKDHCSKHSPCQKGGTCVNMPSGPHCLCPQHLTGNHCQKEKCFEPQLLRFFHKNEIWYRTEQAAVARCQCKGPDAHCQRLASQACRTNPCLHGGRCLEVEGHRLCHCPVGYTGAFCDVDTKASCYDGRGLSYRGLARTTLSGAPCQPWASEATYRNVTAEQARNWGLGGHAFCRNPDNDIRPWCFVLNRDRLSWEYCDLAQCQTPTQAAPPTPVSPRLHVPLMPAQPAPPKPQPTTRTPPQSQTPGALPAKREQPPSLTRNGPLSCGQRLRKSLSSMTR
Procedure, shortened: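 Compound preincubated with 10 nM FXIIa for 10 min at 37° C in 50 mM Tris, 137 mM NaCl, pH 7.4, 5% DMSO, top concentration 500 μM; S-2302 added at Km. pNA release followed at 405 nm for 3 h; IC50 from initial rates, converted to Ki via Ki = IC50/(1+[S]/Km).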

FXa = FXa (Homo sapiens, UniProt P00742); assay: Determination of selectivity: FXa inhibition (chromogenic substrate S2765); details: fold selectivity for FXIIa over FXa (human); category
Procedure, shortened: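 FXa (5 nM) preincubated with increasing compound (top 500 μM) for 10 mins at 37° C in 50 mM Tris, 137 mM NaCl pH 7.4, 5% DMSO, then S2765 added at its KM. Absorbance at 405 nm followed kinetically for 3 hours; IC50 from initial rates, converted to Ki by Cheng-Prusoff.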

thrombin = target: T2, thrombin (Homo sapiens, UniProt P00734); assay: Determination of selectivity: thrombin inhibition (chromogenic substrate GPR); details: fold selectivity for FXIIa over thrombin (human); category
T2 construct: FXa (5 nM) and thrombin (5 nM)
Procedure, shortened: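 Thrombin (5 nM) preincubated with increasing compound concentrations (top 500 μM, 5% DMSO) 10 min at 37 °C in 50 mM Tris, 137 mM NaCl pH 7.4, then GPR chromogenic substrate at its KM. pNA release read kinetically at 405 nm for 3 h at 37 °C. IC50 from initial rates, converted to Ki via Cheng–Prusoff.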

Chain of FXa (P00742 235-488 limits assumed): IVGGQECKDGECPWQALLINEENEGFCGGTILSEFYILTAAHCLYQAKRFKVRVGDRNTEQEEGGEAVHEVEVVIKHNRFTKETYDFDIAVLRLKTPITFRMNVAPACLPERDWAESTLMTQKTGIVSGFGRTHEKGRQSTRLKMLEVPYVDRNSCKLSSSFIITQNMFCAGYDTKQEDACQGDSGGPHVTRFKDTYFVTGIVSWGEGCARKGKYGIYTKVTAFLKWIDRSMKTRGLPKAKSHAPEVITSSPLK
Chain of FXa (P00742 41-179 partner limits assumed): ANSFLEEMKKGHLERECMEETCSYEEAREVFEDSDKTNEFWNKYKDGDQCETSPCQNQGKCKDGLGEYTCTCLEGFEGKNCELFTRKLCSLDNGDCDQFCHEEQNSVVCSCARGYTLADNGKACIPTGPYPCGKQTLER

Row | Compound | Ki (FXIIa) [nM] | FXa (human)/FXIIa alpha (human) (FXa) | Thrombin (human)/FXIIa alpha (human) (thrombin)
1 | CN(C)CCN(C)C(=O)[C@H]1CCCN[C@H]1C(=O)N1C[C@H](Cc2ccc(C3CC3)cc2)C[C@H]1C(=O)NCc1ccc2c(cnn2C)c1 [Example M06060, (2R,3S)-2-((2S,4R)-4-(4-cyclopropylbenzyl)-2-(((1-methyl-1H-indazol-5-yl)methyl)carbamoyl)pyrrolidine-1-carbonyl)-N-(2-(dimethylamino)ethyl)-N-methylpiperidine-3-carboxamide] | < 200 | ∘∘∘ | +++ (fold selectivity values greater than 100)
2 | Cc1ccc(O[C@@H]2C[C@@H](C(=O)NCc3ccc4c(cnn4C)c3)N(C(=O)[C@@H]3NCCC[C@@H]3C(=O)N3CCCC3)C2)cc1 [Example M05798, (2S,4R)-N-[(1-methylindazol-5-yl)methyl]-4-(4-methylphenoxy)-1-[(2R,3S)-3-(pyrrolidine-1-carbonyl)piperidine-2-carbonyl]pyrrolidine-2-carboxamide] | 800 to 5000 | ∘∘∘ | +++ (fold selectivity values greater than 100)
3 | Cn1ncc2cc(CNC(=O)[C@@H]3C[C@@H](Cc4ccc(Cl)cc4)CN3C(=O)[C@@H]3NCCC[C@@H]3C(=O)N3CCCC3)ccc21 [Example M05854, (2S,4R)-4-(4-chlorobenzyl)-N-((1-methyl-1H-indazol-5-yl)methyl)-1-((2R,3S)-3-(pyrrolidine-1-carbonyl)piperidine-2-carbonyl)pyrrolidine-2-carboxamide] | 200 to 800 | ∘∘∘ | +++ (fold selectivity values greater than 100)
4 | Cc1ccc(C[C@@H]2C[C@@H](C(=O)NCc3cc4cncc(F)c4[nH]3)N(C(=O)[C@@H]3NCCC[C@@H]3C(=O)N3CCCC3)C2)cc1 [Example M05712, (2S,4R)-N-((7-fluoro-1H-pyrrolo[3,2-c]pyridin-2-yl)methyl)-4-(4-methylbenzyl)-1-((2R,3S)-3-(pyrrolidine-1-carbonyl)piperidine-2-carbonyl)pyrrolidine-2-carboxamide] | 200 to 800 | ∘∘∘ | +++ (fold selectivity values greater than 100)
5 | Cn1nnc2cc(CNC(=O)[C@@H]3C[C@@H](CC4=CCC5(CC4)CC5)CN3C(=O)[C@@H]3NCCC[C@@H]3C(=O)N3CCCC3)ccc21 [Example M05991] | < 200 | ∘∘∘ | +++ (fold selectivity values greater than 100)
6 | COc1cc(CNC(=O)[C@@H]2C[C@@H](Cc3ccc(C)cc3)CN2C(=O)[C@@H]2NCCC[C@@H]2C(=O)N2CCCC2)cc2cnn(C)c12 [Example M05799, (2S,4R)-N-((7-methoxy-1-methyl-1H-indazol-5-yl)methyl)-4-(4-methylbenzyl)-1-((2R,3S)-3-(pyrrolidine-1-carbonyl)piperidine-2-carbonyl)pyrrolidine-2-carboxamide] | < 200 | ∘∘∘ | ++ (a fold selectivity value of 10 to 100)
7 | Cc1ccc(C[C@@H]2C[C@@H](C(=O)NCc3ccc4c(cnn4C)c3)N(C(=O)[C@@H]3NCCC[C@@H]3C(=O)N3C4CCC3COC4)C2)cc1 [Example M05770, (2S,4R)-1-((2R,3S)-3-(3-oxa-8-azabicyclo[3.2.1]octane-8-carbonyl)piperidine-2-carbonyl)-N-((1-methyl-1H-indazol-5-yl)methyl)-4-(4-methylbenzyl)pyrrolidine-2-carboxamide] | 200 to 800 | ∘∘∘ | +++ (fold selectivity values greater than 100)
8 | Cn1ncc2cc(CNC(=O)[C@@H]3C[C@@H](Cc4ncc(C5CC5)o4)CN3C(=O)[C@@H]3NCCC[C@@H]3C(=O)N3CCCC3)ccc21 [Example M06009] | 200 to 800 | ∘∘∘ | +++ (fold selectivity values greater than 100)
9 | Cc1ccc(C[C@@H]2C[C@@H](C(=O)NCC3CCc4c(cnn4C)C3)N(C(=O)[C@@H]3NCCC[C@@H]3C(=O)N3CCCC3)C2)cc1 (stereo partly drawn) [Example M05874, (2S,4R)-N-((1-methyl-4,5,6,7-tetrahydro-1H-indazol-5-yl)methyl)-4-(4-methylbenzyl)-1-((2R,3S)-3-(pyrrolidine-1-carbonyl)piperidine-2-carbonyl)pyrrolidine-2-carboxamide] | 200 to 800 | ∘∘∘ | +++ (fold selectivity values greater than 100)
10 | Cc1ccc(C[C@@H]2C[C@@H](C(=O)NCc3ccc4c(cnn4C)c3)N(C(=O)[C@@H]3NCCC[C@@H]3C(=O)N(C)CCCN(C)C)C2)cc1 [Example M06063, (2R,3S)-N-(3-(dimethylamino)propyl)-N-methyl-2-((2S,4R)-2-(((1-methyl-1H-indazol-5-yl)methyl)carbamoyl)-4-(4-methylbenzyl)pyrrolidine-1-carbonyl)piperidine-3-carboxamide] | < 200 | ∘∘∘ | +++ (fold selectivity values greater than 100)
11 | Cn1nnc2cc(CNC(=O)[C@@H]3C/C(=C/C4=CCC5(CC4)CC5)CN3C(=O)[C@@H]3NCCC[C@@H]3C(=O)N3CCCC3)ccc21 [Example M05992, (S,Z)-N-((1-methyl-1H-benzo[d][1,2,3]triazol-5-yl)methyl)-1-((2R,3S)-3-(pyrrolidine-1-carbonyl)piperidine-2-carbonyl)-4-(spiro[2.5]oct-5-en-6-ylmethylene)pyrrolidine-2-carboxamide] | 200 to 800 | ∘∘∘ | +++ (fold selectivity values greater than 100)
12 | CCN1CCC[C@H](C(=O)N2CCCC2)[C@@H]1C(=O)N1C[C@H](Cc2ccc(C)cc2)C[C@H]1C(=O)NCc1ccc2c(cnn2C)c1 [Example M05772, (2S,4R)-1-((2R,3S)-1-ethyl-3-(pyrrolidine-1-carbonyl)piperidine-2-carbonyl)-N-((1-methyl-1H-indazol-5-yl)methyl)-4-(4-methylbenzyl)pyrrolidine-2-carboxamide] | 200 to 800 | ∘∘∘ | +++ (fold selectivity values greater than 100)
13 | Cc1ccc(C[C@@H]2C[C@@H](C(=O)NCc3ccc4c(cnn4C)c3)N(C(=O)[C@@H]3NCCC[C@@H]3C(=O)N(C)CCN3CC(F)C3)C2)cc1 [Example M06099, (2R,3S)-N-(2-(3-fluoroazetidin-1-yl)ethyl)-N-methyl-2-((2S,4R)-2-(((1-methyl-1H-indazol-5-yl)methyl)carbamoyl)-4-(4-methylbenzyl)pyrrolidine-1-carbonyl)piperidine-3-carboxamide] | < 200 | ∘∘∘ | +++ (fold selectivity values greater than 100)

Reference: US20240294498A1, “FACTOR XIIA INHIBITORS” (Lunac Therapeutics Ltd, priority 2021, published 2024)
